# Measurements: patent US8436138B2, “Binder for C-reactive protein” (Modpro AB, priority 2006, dated 2013)
# Experiment: Stability in aqueous solution
# Format: physicochemical
# Conditions: acidic pH (0.1% TFA)
# Description: Commercially available aminohexanoic acid 2 was N,N-dimethylated^11 12 by an Eschweiler-Clarke-type procedure (treatment with formaldehyde and hydrogen/palladium/carbon), and the resulting product (3, 86%) was esterified by treatment with methanolic hydrogen chloride to give the methyl ester 4 (96%). Quartenarization was effected by reacting 4 with monomethoxytrityl-protected bromoethanol 1, forming derivative 5 (73%). Unprotected bromoethanol could also be reacted with 4, but the reaction yield was lower and the product was more difficult to detect and purify. Monomethoxytrityl protection conferred lipophilicity and TLC detectability (UV visible and acid stainable) to the crucial intermediate 5. Saponification of 5 with lithium hydroxide/water/t-butanol gave the corresponding acid 6 (95%), which was treated without isolation with p-nitrophenol and diisopropyl carbodiimide in pyridine to give the p-nitrophenyl ester 7 (86%). Brief treatment of 7 with formic acid gave the corresponding alcohol 8, which was used directly in the next step, because of its sensitivity to self-condensation. Reaction of crude 8 at 0° C. in acetonitril with first an excess of phosphorous oxychloride and triethylamine, then water gave the desired monophosphate 9 in 22% yield from 7, after HPLC purification. […]
smiles,measurement,value
"C[N+](C)(CCCCCC(=O)Oc1ccc([N+](=O)[O-])cc1)CCOP(=O)([O-])O [Peptide 9, 6-(N,N-Dimethylamino)-N-[(2-phosphoryloxy)-ethyl]-hexanoic acid p-nitrophenyl ester]",stability in aqueous solution,stable
